# Measurements: ChEMBL document CHEMBL1201862, “PubChem BioAssay data set” (2004)
#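 Exposure lasted 48 hours, with cells grown in 96-well plates and compounds tested at five concentrations. GI50: concentration for 50% inhibition of growth.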 Active and inactive are the calls of the source. Cut-off read from the data, not from the text of the source: active = GI50 up to about 1.1 µM and inactive = higher.
# What was measured:
# Assay in all cases: NCI-60 cell line screen, 48 h
# ACHN = system: ACHN
# HCC 2998 = system: HCC 2998
# HT-29 = system: HT-29
# M14 = system: M14
# NCI-H460 = system: NCI-H460
# NCI-H522 = system: NCI-H522
# OVCAR-3 = system: OVCAR-3
# OVCAR-4 = system: OVCAR-4
# SF-268 = system: SF-268
# SF-295 = system: SF-295
# SK-MEL-28 = system: SK-MEL-28
# SK-MEL-2 = system: SK-MEL-2
# SK-MEL-5 = system: SK-MEL-5
# UACC-257 = system: UACC-257
# UO-31 = system: UO-31
# IGROV-1 = system: IGROV-1
# UACC-62 = system: UACC-62
Structure (SMILES),GI50 (ACHN),GI50 (HCC 2998),GI50 (HT-29),GI50 (M14),GI50 (NCI-H460),GI50 (NCI-H522),GI50 (OVCAR-3),GI50 (OVCAR-4),GI50 (SF-268),GI50 (SF-295),GI50 (SK-MEL-28),GI50 (SK-MEL-2),GI50 (SK-MEL-5),GI50 (UACC-257),GI50 (UO-31),GI50 (IGROV-1),GI50 (UACC-62)
COc1ccc(C[C@@H]2Cc3cc(OC)c(OC)cc3CN2C)cc1,> 100 µM (inactive),> 100 µM (inactive),> 100 µM (inactive),> 100 µM (inactive),> 100 µM (inactive),> 100 µM (inactive),> 100 µM (inactive),76.4 µM (inactive),> 100 µM (inactive),57 µM (inactive),> 100 µM (inactive),> 100 µM (inactive),> 100 µM (inactive),> 100 µM (inactive),> 100 µM (inactive),–,–
CN(C)c1ccc(-c2cc(O)c3cc4c(cc3n2)OCO4)cc1,> 100 µM (inactive),> 100 µM (inactive),> 100 µM (inactive),> 100 µM (inactive),> 100 µM (inactive),–,> 100 µM (inactive),> 100 µM (inactive),> 100 µM (inactive),> 100 µM (inactive),> 100 µM (inactive),> 100 µM (inactive),> 100 µM (inactive),> 100 µM (inactive),> 100 µM (inactive),> 100 µM (inactive),> 100 µM (inactive)
C=CCC1(CC)C(=O)NC(=O)NC1=O [ETALLOBARBITAL],> 100 µM (inactive),> 100 µM (inactive),–,> 100 µM (inactive),> 100 µM (inactive),> 100 µM (inactive),> 100 µM (inactive),–,> 100 µM (inactive),> 10 µM (inactive),> 100 µM (inactive),–,–,> 100 µM (inactive),> 100 µM (inactive),> 100 µM (inactive),> 100 µM (inactive)
COc1cc(OC)c(C2CC=Cc3c(OC)cc(OC)c(OC)c32)cc1OC (centres undefined),> 100 µM (inactive),> 100 µM (inactive),> 100 µM (inactive),> 100 µM (inactive),> 100 µM (inactive),–,> 100 µM (inactive),> 100 µM (inactive),> 100 µM (inactive),> 100 µM (inactive),> 100 µM (inactive),> 100 µM (inactive),> 100 µM (inactive),> 100 µM (inactive),> 100 µM (inactive),> 100 µM (inactive),> 100 µM (inactive)
CCCCC1(C)C=C/C(=C2/C(=O)O/C(=C\C(=O)O)C2=O)O1 (centres undefined),> 100 µM (inactive),–,> 100 µM (inactive),> 100 µM (inactive),> 100 µM (inactive),–,> 100 µM (inactive),> 100 µM (inactive),–,> 100 µM (inactive),> 100 µM (inactive),> 100 µM (inactive),> 100 µM (inactive),> 100 µM (inactive),> 100 µM (inactive),> 100 µM (inactive),> 100 µM (inactive)
COc1c(C(=O)c2ccc([N+](=O)[O-])cc2)cc(C(C)(C)C)cc1C(C)(C)C,31.3 µM (inactive),24.9 µM (inactive),28.7 µM (inactive),22.9 µM (inactive),32.4 µM (inactive),21.5 µM (inactive),–,43.1 µM (inactive),34.4 µM (inactive),39.1 µM (inactive),22.8 µM (inactive),13.4 µM (inactive),15.6 µM (inactive),22.9 µM (inactive),40.8 µM (inactive),72.4 µM (inactive),16.7 µM (inactive)
Cc1cccc(C)c1CO,> 100 µM (inactive),> 100 µM (inactive),> 100 µM (inactive),> 100 µM (inactive),> 100 µM (inactive),> 100 µM (inactive),> 100 µM (inactive),> 100 µM (inactive),> 100 µM (inactive),> 100 µM (inactive),–,> 100 µM (inactive),–,> 100 µM (inactive),> 100 µM (inactive),> 100 µM (inactive),> 100 µM (inactive)
Cc1ccc(C2=CC(=O)c3ccccc3C2=O)n1-c1ccccc1,–,> 100 µM (inactive),> 100 µM (inactive),> 100 µM (inactive),48 µM (inactive),> 100 µM (inactive),87.1 µM (inactive),25.6 µM (inactive),> 100 µM (inactive),> 100 µM (inactive),> 100 µM (inactive),–,> 100 µM (inactive),–,–,> 100 µM (inactive),41.9 µM (inactive)
O=c1c2cc(Br)ccc2nc(-c2ccccc2Cl)n1NCC1(O)OCC(O)C(O)C1O (centres undefined),> 100 µM (inactive),–,> 100 µM (inactive),> 100 µM (inactive),> 100 µM (inactive),> 100 µM (inactive),76.2 µM (inactive),60.7 µM (inactive),> 100 µM (inactive),> 100 µM (inactive),> 100 µM (inactive),> 100 µM (inactive),> 100 µM (inactive),> 100 µM (inactive),> 100 µM (inactive),–,> 100 µM (inactive)
CN(C)c1ccc2c(NCCCCCCNc3ccnc4cc(N(C)C)ccc34)ccnc2c1,16.2 µM (inactive),15.7 µM (inactive),19.2 µM (inactive),22.6 µM (inactive),6.75 µM (inactive),6.75 µM (inactive),13.7 µM (inactive),11.9 µM (inactive),28 µM (inactive),10.7 µM (inactive),14.3 µM (inactive),20.2 µM (inactive),12.2 µM (inactive),14.9 µM (inactive),32.3 µM (inactive),–,> 100 µM (inactive)
CCCCCC/C(CC(=O)CCC(=O)NCCc1ccccc1)=N\Nc1ccc([N+](=O)[O-])cc1[N+](=O)[O-],97.7 µM (inactive),> 100 µM (inactive),> 100 µM (inactive),> 100 µM (inactive),> 100 µM (inactive),39.9 µM (inactive),51.3 µM (inactive),–,71.6 µM (inactive),> 100 µM (inactive),> 100 µM (inactive),> 100 µM (inactive),70.1 µM (inactive),74.8 µM (inactive),61.9 µM (inactive),> 100 µM (inactive),30.5 µM (inactive)
N#Cc1ccccc1NC(=O)C(=O)C(C(=O)c1ccncc1)C1OC(=O)c2ccccc21 (centres undefined),> 100 µM (inactive),> 100 µM (inactive),> 100 µM (inactive),> 100 µM (inactive),> 100 µM (inactive),> 100 µM (inactive),> 100 µM (inactive),> 100 µM (inactive),> 100 µM (inactive),> 100 µM (inactive),> 100 µM (inactive),–,> 100 µM (inactive),> 100 µM (inactive),> 100 µM (inactive),> 100 µM (inactive),> 100 µM (inactive)
CC(C)(C)[Si](C)(C)O/N=C\c1ccc(O[Si](C)(C)C(C)(C)C)cc1,37.6 µM (inactive),36.8 µM (inactive),64.4 µM (inactive),62.1 µM (inactive),> 100 µM (inactive),–,20.2 µM (inactive),> 100 µM (inactive),49.5 µM (inactive),52.5 µM (inactive),–,> 100 µM (inactive),> 100 µM (inactive),> 100 µM (inactive),50.9 µM (inactive),> 100 µM (inactive),> 100 µM (inactive)
COc1cc(C2C(C(=O)Nc3ccccc3)=C(C)NC(C)=C2C(=O)Nc2ccccc2)ccc1O,98.9 µM (inactive),27 µM (inactive),18.7 µM (inactive),–,43.7 µM (inactive),> 10 µM (inactive),23 µM (inactive),29.1 µM (inactive),> 100 µM (inactive),49.9 µM (inactive),46.7 µM (inactive),28.6 µM (inactive),–,61.9 µM (inactive),97.1 µM (inactive),37 µM (inactive),–
COC1=CC(C2c3cc4c(cc3[C@@H](Nc3ccc(F)cc3)C3COC(=O)[C@H]23)OCO4)=CC(=O)C1=O (some centres undefined),3.1 µM (inactive),16.1 µM (inactive),20.2 µM (inactive),7.82 µM (inactive),0.608 µM (active),4.33 µM (inactive),27.7 µM (inactive),39.8 µM (inactive),8.05 µM (inactive),3.21 µM (inactive),19.2 µM (inactive),–,9.35 µM (inactive),37.6 µM (inactive),7.66 µM (inactive),14.4 µM (inactive),5.68 µM (inactive)
O=C(O)c1ccc([I+]c2ccccc2)cc1,–,> 100 µM (inactive),> 100 µM (inactive),> 100 µM (inactive),> 100 µM (inactive),> 100 µM (inactive),> 100 µM (inactive),> 100 µM (inactive),> 100 µM (inactive),> 100 µM (inactive),–,> 100 µM (inactive),> 100 µM (inactive),> 100 µM (inactive),> 100 µM (inactive),> 100 µM (inactive),> 100 µM (inactive)
OCc1c[te]c(-c2ccccc2)c1,53.3 µM (inactive),> 100 µM (inactive),> 10 µM (inactive),84.7 µM (inactive),31 µM (inactive),–,15.5 µM (inactive),32 µM (inactive),–,2.25 µM (inactive),63.1 µM (inactive),25.8 µM (inactive),30.7 µM (inactive),57.5 µM (inactive),23.3 µM (inactive),> 100 µM (inactive),31.3 µM (inactive)
O=S(=O)(OI(OI(OS(=O)(=O)C(F)(F)F)c1ccccc1)c1ccccc1)C(F)(F)F,52.1 µM (inactive),> 100 µM (inactive),–,43 µM (inactive),39.5 µM (inactive),23.2 µM (inactive),93.3 µM (inactive),–,31.3 µM (inactive),21.7 µM (inactive),–,38.5 µM (inactive),13.5 µM (inactive),–,47.2 µM (inactive),55.8 µM (inactive),64.4 µM (inactive)
